Test results from patent US10253002B2, “Compounds and methods of treating infections” (Neoculi Pty Ltd., priority 2013, dated 2019).
Where two headings read alike, the source gives them in different places.

Assays:
[1] = system: methicillin-resistant Staphylococcus aureus (MRSA); test: Broth microdilution MIC (CLSI), Example 1; assay type: cell-based
Procedure: (§1) Cation adjusted Mueller Hinton Broth (CAMHB) was prepared using 100 mL sterile Mueller Hinton broth (pH adjusted). To each 100 mL volume, 125 μL of calcium stock solution (10 mg Ca^2+ per ml) and 43 μL magnesium stock solution (10 mg Mg^2+ per mL) was aseptically added. Sufficient broth is made up for daily use, with unused portions being stored at 4° C. overnight.
(§2) Potency was described as 1000 mg/g or 100%. The powder was dissolved in 10 mL DMSO and 1 mL volumes were aliquoted into eppendorf tubes and stored at −80° C.
For Staphylococcus aureus, a working solution of 256 μg/mL was prepared by diluting stock solutions as described above 1:100 in CAMHB (100 μL into 9.9 mL).
(§3) Serial dilutions were prepared in 96 well plates were set up in a safety cabinet according to methods standard in the art. Briefly: 90 μL of the working antibiotic solution was added to each well in Column 12 of the plate, and mixed well, before 90 μL was transferred to column 11. The solutions were mixed again, and then transferred to the next column as before, continuing the dilutions through to column 3. Mixing the well requires the pick up and expulsion of 90 μL in each well 3-4 times before picking up and transferring the 90 μL to the next well. […] The trays were set up as follows: 2 strains were tested in duplicate in one tray, such that strain 1 was located in rows A to D, strain 2 was located in rows E to H, etc.
(§4) Fresh cultures of bacteria were prepared for testing on sheep blood agar (SBA), and overnight incubation at 37° C. as follows; 2-3 colonies of each strain in 7 mL sterile saline, and the OD600 measured as an indication of the density (approx. […] or 0.5 McFarland Standard). The bacterial suspension was adjusted to a final absorbance of 0.08 to 0.100, using saline to achieve correct density, and as the blank. Within 15 minutes of preparation, the adjusted bacterial suspension with sterile saline 1:20 (1 mL into 19 mL sterile saline) to achieve a final bacterial concentration of 4 to 5×10^6 CFU/mL. The bacterial solution was placed into a sterile trough and 10 μL of bacterial solution added into wells 2 through to 12 on each required row (dilution of 1:10, with final concentration of bacteria in wells=5×10^5 CFU/mL). The tray was sealed and incubated at 37° C. for 18-24 h. The purity of bacterial suspension was confirmed by streaking out 50 μL of the 1:20 dilution onto a SBA plate, which was incubated for 37° C. for 18 h and examined. Viable counts were carried out to ensure that the correct concentration of bacteria and been added to the wells. The diluted bacterial solution (4 to 5×10^6 CFU/mL) was diluted 1:10 downwards by adding 100 μL to 900 μL of sterile saline in sterile tubes, and the serial dilutions continued 1:10 for 5 tubes. 100 μL (4-5 drops) of the 4th and 5th dilutions (tube 4=105 and tube 5=10^6 CFU/ml) was plated around in duplicate on pre-dried PCA agar plates and incubated at 37° C. overnight. The following day the number of colonies on the plates was counted and the average count in 100 μL obtained. The study was multiplied by 10 to obtain a viable bacterial count per mL.
(§5) Minimum inhibitory concentrations (μg/mL) were determined using the broth microdilution method recommended by the Clinical and Laboratory Standards Institute (CLSI) (Methods for Dilution Antimicrobial Susceptibility Tests for Bacteria That Grow Aerobically; Approved Standard—Seventh Edition. CLSI M7-A7, 2006; Performance Standards for Antimicrobial Disk and Dilution Susceptibility Tests for Bacteria Isolated from Animals; Approved Standard—Second Edition. CLSI M31-A2, 2002; Performance Standards for Antimicrobial Susceptibility Testing; CLSI M2-A9, 2006).
MIC breakpoints were determined by visual assessment and then confirmed using an ELISA plate reader, measuring absorbance levels at 450 nm.

[2] = system: vancomycin-resistant Enterococcus spp. (VRE); test: Broth microdilution MIC (CLSI), Example 1; assay type: cell-based
Procedure: as §1, §2, §3, §4, §5
MIC breakpoints were determined by visual assessment and then confirmed using an ELISA plate reader, measuring absorbance levels at 450 nm. Bacterial growth (turbidity) in the wells with antimicrobial was compared with the amount of growth (turbidity) in the growth-control well (containing no antimicrobial).

CC1(C)S[C@@H]2[C@H](NC(=O)[C@H](N)c3ccccc3)C(=O)N2[C@H]1C(=O)O [Ampicillin]
128 µg/mL: MIC ([1]; Staphylococcus aureus, MRSA, MRSA 610, Test 1, read-out: MIC) | MIC ([1]; Staphylococcus aureus, MRSA, MRSA 610, Test 2, read-out: MIC) | MIC ([1]; Staphylococcus aureus, MRSA, MRSA 773, Test 1, read-out: MIC) | MIC ([1]; Staphylococcus aureus, MRSA, MRSA 844, Test 1, read-out: MIC) | MIC ([1]; Staphylococcus aureus, MRSA, MRSA 844, Test 2, read-out: MIC)
2 µg/mL: MIC ([1]; Staphylococcus aureus, ATCC 29213 / MRSA, S. aureus strain ATCC 29213, read-out: MIC of control strain (internal quality control)) | MIC ([1]; Staphylococcus aureus, ATCC 29213 / MRSA, Staph. aureus ATCC 29213, Test 1, read-out: MIC) | MIC ([1]; Staphylococcus aureus, ATCC 29213 / MRSA, Staph. aureus ATCC 29213, Test 2, read-out: MIC)
32 µg/mL: MIC ([1]; Staphylococcus aureus, MRSA, MRSA 516, Test 1, read-out: MIC) | MIC ([1]; Staphylococcus aureus, MRSA, MRSA 516, Test 2, read-out: MIC) | MIC ([1]; Staphylococcus aureus, MRSA, MRSA 606, Test 1, read-out: MIC) | MIC ([1]; Staphylococcus aureus, MRSA, MRSA 606, Test 2, read-out: MIC) | MIC ([1]; Staphylococcus aureus, MRSA, MRSA 786, Test 1, read-out: MIC)
>128 µg/mL: MIC90 ([1]; Staphylococcus aureus isolates of Table 3, Test 2)
8 µg/mL: MIC ([1]; Staphylococcus aureus, MRSA, MRSA 741, Test 1, read-out: MIC) | MIC ([1]; Staphylococcus aureus, MRSA, MRSA 741, Test 2, read-out: MIC)
64 µg/mL: MIC ([1]; Staphylococcus aureus, MRSA, MRSA 616, Test 1, read-out: MIC) | MIC ([1]; Staphylococcus aureus, MRSA, MRSA 616, Test 2, read-out: MIC) | MIC ([1]; Staphylococcus aureus, MRSA, MRSA 622, Test 1, read-out: MIC) | MIC ([1]; Staphylococcus aureus, MRSA, MRSA 622, Test 2, read-out: MIC) | MIC ([1]; Staphylococcus aureus, MRSA, MRSA 698, Test 1, read-out: MIC) | MIC ([1]; Staphylococcus aureus, MRSA, MRSA 698, Test 2, read-out: MIC) | MIC ([1]; Staphylococcus aureus, MRSA, MRSA 728, Test 1, read-out: MIC) | MIC ([1]; Staphylococcus aureus, MRSA, MRSA 728, Test 2, read-out: MIC) | MIC ([1]; Staphylococcus aureus, MRSA, MRSA 773, Test 2, read-out: MIC) | MIC ([1]; Staphylococcus aureus, MRSA, MRSA 786, Test 2, read-out: MIC) | MIC ([1]; Staphylococcus aureus, MRSA, MRSA 815, Test 1, read-out: MIC) | MIC ([1]; Staphylococcus aureus, MRSA, MRSA 815, Test 2, read-out: MIC) | MIC50 ([1]; Staphylococcus aureus, MRSA, 21 isolates)
1 µg/mL: MIC range ([2]; E. faecalis, 4 isolates) | MIC50 ([2]; E. faecium, 16 isolates) | MIC range ([2]; E. faecium, 16 isolates)
> 128 µg/mL: MIC90 ([1]; MRSA, 21 isolates) | MIC90 ([1]; MRSA, Staphylococcus aureus isolates of Table 3, Test 1, read-out: MIC90) | MIC ([1]; Staphylococcus aureus, MRSA, 21 isolates, read-out: MIC mode) | MIC ([1]; Staphylococcus aureus, MRSA, MRSA 570, Test 1, read-out: MIC) | MIC ([1]; Staphylococcus aureus, MRSA, MRSA 570, Test 2, read-out: MIC) | MIC ([1]; Staphylococcus aureus, MRSA, MRSA 580, Test 1, read-out: MIC) | MIC ([1]; Staphylococcus aureus, MRSA, MRSA 580, Test 2, read-out: MIC) | MIC ([1]; Staphylococcus aureus, MRSA, MRSA 713, Test 1, read-out: MIC) | MIC ([1]; Staphylococcus aureus, MRSA, MRSA 713, Test 2, read-out: MIC) | MIC ([1]; Staphylococcus aureus, MRSA, MRSA 718, Test 1, read-out: MIC) | MIC ([1]; Staphylococcus aureus, MRSA, MRSA 718, Test 2, read-out: MIC) | MIC ([1]; Staphylococcus aureus, MRSA, MRSA 734, Test 1, read-out: MIC) | MIC ([1]; Staphylococcus aureus, MRSA, MRSA 734, Test 2, read-out: MIC) | MIC ([1]; Staphylococcus aureus, MRSA, MRSA 747, Test 1, read-out: MIC) | MIC ([1]; Staphylococcus aureus, MRSA, MRSA 747, Test 2, read-out: MIC) | MIC ([1]; Staphylococcus aureus, MRSA, MRSA 778, Test 1, read-out: MIC) | MIC ([1]; Staphylococcus aureus, MRSA, MRSA 778, Test 2, read-out: MIC) | MIC ([1]; Staphylococcus aureus, MRSA, MRSA 787, Test 1, read-out: MIC) | MIC ([1]; Staphylococcus aureus, MRSA, MRSA 787, Test 2, read-out: MIC) | MIC ([1]; Staphylococcus aureus, MRSA, MRSA 823, Test 1, read-out: MIC) | MIC ([1]; Staphylococcus aureus, MRSA, MRSA 823, Test 2, read-out: MIC)
